How the values were obtained:
[1] = system: NMDAR overactivation seizures in CD1 mice; experiment: NMDA-induced seizures (1 nmol NMDA icv); assay type: in vivo, mouse; conditions: for effect on behavioral signs evoked by NMDA: 8 mice
Description: Figure 1 ^αN-acetyl β-End 1–31 reduced ischemic brain damage and diminished seizures induced by NMDAR overactivation. Implication of σ1Rs. (A) ^αN-acetyl β-End 1–31 administration diminished ischemic brain damage in wild-type but not σ1R^−/− mice. Upper panel: representative 2,3,5-triphenyltetrazolium chloride (TTC)-stained brain section images obtained from saline- and drug-treated mice (3 nmol, 1 h after surgery) 48 h after pMCAO. White indicates infarction; red staining indicates normal tissue. Lower panel: the bar graphs quantitatively compare the infarct volume based on TTC staining from wild-type mice treated with saline, β-End 1–31 and the σ1R agonist PRE084 (white bars). The reducing effect of ^αN-acetyl β-End 1–31 was counteracted by β-End 1–31 and PRE084 (gray bars). In σ1R^−/− mice, the positive effect of ^αN-acetyl β-End 1–31 was not observed. […] Effects of PPCC, β-End 1–31 and ^αN-acetyl β-End 1–31 on seizures induced by NMDA in wild-type and σ1R^−/− mice. The mice received icv 1 nmol of the NMDAR agonist NMDA 30 min after the other drugs (3 nmol) and were then immediately evaluated. […] ANOVA followed by the Holm–Sidak multiple comparisons test, p < 0.05, 1-β > 0.80.
Seizures were induced by injection of NMDA (1 nmol/mouse icv, in a volume of 4 μL sterile saline) as described by others. […] The seizure activity consisted of a mild myoclonic phase (immobility, mouth and facial movements, tail extension, circling), rearing (violent movements of the whole body, rearing), wild running (episodes of running with explosive jumps), clonic convulsions (characterized by rigidity of the whole body, including limb flexion/extension), followed by continuous/repetitive seizure activity (tonic seizures) and, in approximately 15–20% of the animals, death. The episode typically began a few seconds after injection and evolved to its maximal intensity in less than 1 min.

[2] = system: MOR; experiment: Coprecipitation of G proteins, σ2Rs and NMDAR NR1 C1 with PAG MORs after icv injection; assay type: in vivo, mouse; conditions: 60 min post-treatment; for effect on association of PAG MOR with G proteins, σ2Rs and NR1 C1: icv: β-End 1–31 5 pmol, ^αN-acetyl β-End 1–31 5 pmol, S1RA 3 nmol, n = 3
MOR, sequence (P42866 whole entry): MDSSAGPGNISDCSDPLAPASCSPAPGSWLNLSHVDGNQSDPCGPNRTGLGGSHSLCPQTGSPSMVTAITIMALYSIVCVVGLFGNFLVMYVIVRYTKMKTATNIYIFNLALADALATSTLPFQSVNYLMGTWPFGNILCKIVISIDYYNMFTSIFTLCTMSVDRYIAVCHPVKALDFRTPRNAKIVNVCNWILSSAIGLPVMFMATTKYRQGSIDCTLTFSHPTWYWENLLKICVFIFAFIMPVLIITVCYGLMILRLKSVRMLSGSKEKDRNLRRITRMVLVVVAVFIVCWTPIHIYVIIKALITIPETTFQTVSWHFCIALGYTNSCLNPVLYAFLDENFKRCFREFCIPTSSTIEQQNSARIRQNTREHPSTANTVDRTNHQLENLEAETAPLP
Description: The data from σ2R^−/− solubilized cortical tissue were referred to the wild-type control (arbitrary value of 1). […] For each Gα subunit and the σ1R, the immunosignals in the absence of the acetylated peptide were the controls (C, value of 1). […] (D) Coprecipitation of G proteins with MORs in CD1 wild-type and σ2R^−/− mice. MORs were immunoprecipitated (IP) from mouse SBM. Coprecipitated proteins were detached from MORs and analyzed by Western blotting with antibodies directed to Gαi2, Gαo, Gαz and MOR proteins. (E) Effect of in vivo icv injection of β-End 1–31, ^αN-acetyl β-End 1–31 and S1RA on the association of PAG MORs with G proteins, σ2Rs and NMDAR NR1 C1 subunits. β-End 1–31 (5 pmol), ^αN-acetyl β-End 1–31 (5 pmol) and S1RA (3 nmol and 10 nmol) were icv-injected, and the mice were sacrificed 60 min post-treatment to obtain the PAG synaptosomal fraction. The MORs were immunoprecipitated from the solubilized membrane preparations, and the coprecipitated target proteins were analyzed by Western blotting. […] Representative blots are shown. The immunosignal provided by the light chain of the affinity-purified anti MOR IgGs was used as SDS-PAGE loading control. […] Data were analyzed by pairwise Holm–Sidak multiple comparison tests following ANOVA: p < 0.05, 1-β > 0.80.
In immunoprecipitation studies, the cerebral cortices or periaqueductal grey matter (PAG) from 4–6 mice are typically pooled, as described previously [89]. […] The software automatically calculates the optimal exposure time for each of the areas specified to provide the strongest possible signal for accurate quantification of the sample. Protein immunosignals were measured using the area of the strongest signal for each group of samples studied (average optical density of the pixels within the object area/mm^2; AlphaEase FC software); the grey values of the means were then normalized within the 8 bit/256 grey levels [(256 − computed value)/computed value].

[3] = biological target: T1, σ1R oligomers (Mus musculus, UniProt O55242); experiment: In vitro made σ1R oligomers on agarose-σ1R; assay type: biochemical, murine; conditions: agarose-σ1R plus free σ1Rs (100 nM), Tris-HCl pH 7.4, 0.2% CHAPS, 2.5 mM CaCl2
T1 construct: The coding region of the full-length murine σ1R (AF004927); GST (N); made in house; host or cells: E. coli BL21 (KRX)
T1 sequence (O55242 whole entry): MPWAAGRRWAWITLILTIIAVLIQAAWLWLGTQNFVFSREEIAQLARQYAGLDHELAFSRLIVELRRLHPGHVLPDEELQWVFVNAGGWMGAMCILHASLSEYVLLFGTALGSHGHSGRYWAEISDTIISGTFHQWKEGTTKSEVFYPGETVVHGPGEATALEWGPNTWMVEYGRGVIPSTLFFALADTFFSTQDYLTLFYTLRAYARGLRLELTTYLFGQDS
Description: In ex vivo fishing assays performed on mouse solubilized brain membranes enriched in synaptosomes (SBM), our bait, agarose-covalently attached σ1Rs (agarose-σ1R), captured diverse prey, such as trimeric G proteins, σ1Rs and σ2Rs (Figure 4C). Because σ1Rs form oligomers in vivo that can be altered by ligands, we added in vitro free σ1Rs to agarose-σ1Rs. After removing the unbound σ1Rs, the extent of the σ1R oligomerization that remained around the agarose-σ1R was determined by SDS-PAGE followed by Western blot analysis (Figure S3).
Figure S4. In vitro made σ1R oligomers. A) Effect of σ1R ligands on the formation of σ1R oligomers.
Agarose (Θ)-attached σ1Rs were incubated for 30 min in the presence of recombinant free σ1Rs (100 nM) in 300 μL of 50 mM Tris-HCl (pH 7.4), 0.2% CHAPS, and 2.5 mM CaCl2. After removing unbound σ1R proteins, the assays were performed in the absence (control) or presence of increasing concentrations of σ1R ligands. The agarose-bound σ1R protein complexes were obtained by centrifugation, washed three times, solubilized in 2x Laemmli buffer containing β-mercaptoethanol, resolved by SDS-PAGE, and analyzed by Western blotting (for more details see Methods). […] The G proteins that remained bound to Θ-σ1R oligomers were determined as in Figure 4C. The arrows indicate an estimated afﬁnity of the ligand for σ1Rs, as determined through in vitro assays. […]

[4] = biological target: T2, σ1R oligomers-σ2R (Mus musculus, UniProt O55242); experiment: Ex vivo fishing assay: σ1R and σ2R of mouse cerebral cortex bound to agarose-σ1R oligomers; assay type: biochemical; conditions: wild-type mouse cerebral cortex SBM; n = 3
T2 construct: The coding region of the full-length murine σ1R (AF004927); GST (N); made in house; host or cells: E. coli BL21 (KRX) for the σ1R bait; σ2R and further σ1R come from solubilised mouse cerebral cortex synaptosomes
T2 sequence (O55242 whole entry): as above
Description: (B) Θ-σ1R captured G proteins in CD1 wild-type and σ2R^−/− SBM. Ex vivo fishing assays were performed as described in Figure 4C. The data from σ2R^−/− solubilized cortical tissue were referred to the wild-type control (arbitrary value of 1). (C) The σ1R oligomers captured G proteins from σ2R^−/− mouse SBM. For each Gα subunit and the σ1R, the immunosignals in the absence of the acetylated peptide were the controls (C, value of 1). […] (A,B,D,E) Data are the mean ± SD, n = 3. Data were analyzed by pairwise Holm–Sidak multiple comparison tests following ANOVA: p < 0.05, 1-β > 0.80.
For fishing studies, solubilization of neural synaptosomes from cerebral cortices or PAG was carried out at 4 °C in RIPA buffer. The membranes were incubated at 4 °C for 16 h with agitation, and then centrifuged at 10,000× g for 5 min. The supernatant was cleared with 20 μL of Sepharose 4B (#17-0120-01, GE Healthcare) pre-equilibrated for 1 h at 4 °C, followed by centrifugation at 4300× g for 5 min. The σ1R was immobilized through covalent attachment to N-Hydroxysuccinimide (NHS)-activated Sepharose 4 fast flow (4FF, #17-0906-01; GE) according to the manufacturer’s instructions. […]

[5] = system: CD1 mice (wild-type and σ1R−/−); conditions: single icv dose; cited from earlier work
[6] = system: MORs; conditions: tritiated naloxone and morphine, mouse brain synaptosomes; cited from earlier work
Excerpt: (§1) ^αN-acetyl β-End 1–31 prevented or alleviated a series of negative symptoms in animals, such as the brain injury caused by pMCAO, the convulsive syndrome promoted by icv-injection of NMDA, and mechanical allodynia caused by unilateral sciatic nerve CCI.

[7] = system: [^125I]-Tyr^27 β-End 1–31 binding site (probably the σ1R site); conditions: 5 pM [125I]-Tyr27 β-End 1–31; cited from earlier work
Excerpt: as §1

[8] = 3 nmol icv 30 min before 1 nmol NMDA icv, wild-type mice

COC(=O)[C@]1(c2ccc(C)cc2)C[C@@H]1CN1CCC(O)(c2ccccc2)CC1 [PPCC, (1R,2S/1S,2R)-2-[4-hydroxy-4-phenylpiperidin-1-yl)methyl]-1-(4-methylphenyl) cyclopropanecarboxylate, reference compound]
effect on behavioral signs evoked by NMDA [1, 8]: did not significantly alter the behavioral effects
effect on the anticonvulsant action of ^αN-acetyl β-End 1–31 ([1]; 3 nmol icv with ^αN-acetyl β-End 1–31, wild-type mice): prevented ^αN-acetyl β-End 1–31 from alleviating these signs

Cc1cc(OCCN2CCOCC2)nn1-c1ccc2ccccc2c1 [S1RA]
effect on association of PAG MOR with G proteins and σ2Rs, 10 nmol ([2]; 10 nmol icv): increased MOR association with Gi2/o and σ2Rs
effect on association of PAG MOR with G proteins, σ2Rs and NR1 C1 [2]: slightly reproduced

KKGE [β-End 28–31, C-terminal tetrapeptide of β-End 1–31]
effect on in vitro made σ1R oligomers [3]: released σ1Rs from these oligomers

^αN-acetyl β-End 1–31: β-End 1–31 acetylated at N terminal Y1, α position
effect on in vitro made σ1R oligomers [3]: released σ1Rs from these oligomers
effect on σ1R oligomerization and σ2R presence at the agarose-σ1R bait [4]: reduces the extent of σ1R oligomerization, and increases the association of σ2Rs with the bait
duration of the effect of a single dose on analgesia [5]: 24 h
effect on clonic convulsions and tonic seizures [1, 8]: only a tendency to diminish clonic convulsions and tonic seizures
effect on behavioral signs evoked by NMDA [1, 8]: partially protected the mice from hypermobility and convulsive rearing
anticonvulsant effects in σ1R−/− mice ([1]; σ1R−/− mice, 3 nmol icv): absent
effect on association of PAG MOR with G proteins, σ2Rs and NR1 C1 [2]: slightly reproduced
affinity to MORs [6]: μM range
fraction of [^125I]-Tyr^27 β-End 1–31 specific binding abolished [7]: 20–30%

Reference: publication PMC9820303, “^αN-Acetyl β-Endorphin Is an Endogenous Ligand of σ1Rs That Regulates Mu-Opioid Receptor Signaling by Exchanging G Proteins for σ2Rs in σ1R Oligomers” (International Journal of Molecular Sciences, 2022)
